The results in this text go back to ChEMBL document CHEMBL1134056, “Diaryl ether inhibitors of farnesyl-protein transferase” (Bioorg Med Chem Lett, 2001).

The target in assay [1] is Protein farnesyltransferase (Homo sapiens, UniProt P49354+P49356). Description: Inhibition of rate of incorporation of [3H]FPP into recombinant Ras-CVIM by human farnesyltransferase. It counts as protein-complex assay.
For assay [2], the target named is Geranylgeranyl transferase type I (Homo sapiens, UniProt P49354+P53609). As to the kind of experiment: Inhibition of rate of incorporation of [3H]GGPP into a biotinylated peptide corresponding to C-terminus of human Ki-Ras by human geranylgeranyl-transferase type I. The format is protein-complex assay.
In assay [3] the target is Protein farnesyltransferase (Rattus norvegicus, UniProt Q02293+Q04631). As to the kind of experiment: Displacement of radiolabeled FTI from Farnesyltransferase in cultured v-Ha-ras-transformed RAT1 cells. The format is functional, cell-based.

Molecules are shown by their SMILES. Where only a bound is given, the exact number is not on record here.

Turning to `COc1ccccc1Oc1cc(Cn2ccnc2)ccc1C#N`, the IC50 was determined as 340 nM in assay [1] and 28000 nM in assay [2].
With `N#Cc1ccc(Cn2ccnc2)cc1Oc1cccc(Cc2ccccc2)c1`, the figures for the 50% inhibitory concentration (IC50) in assay [1] and in assay [2] were 230 nM and 600 nM, respectively.
For `N#Cc1ccc(Cn2ccnc2)cc1Oc1ccc2ccccc2c1`, the IC50 came to 1.1 nM in assay [1] and 520 nM in assay [2].
Compound `N#Cc1ccc(Cn2ccnc2)cc1Oc1ccc(-c2ccccc2)cc1` gave a half-inhibitory concentration (IC50) in assay [2] of 1300 nM.
For the compound `N#Cc1ccc(Cn2ccnc2)cc1OCCc1ccccc1`, the IC50 in assay [1] is 860 nM; in assay [2], 7000 nM.
For `N#Cc1ccc(Cn2ccnc2)cc1Oc1cccc(Oc2ccccc2)c1`, in that order: 14 nM and 280 nM.
Take `N#Cc1ccc(Cn2ccnc2)cc1Oc1ccc(Cl)c(Cl)c1`: the IC50 in assay [1] was 28 nM; in assay [2] it was 1200 nM.
Take `N#Cc1ccc(Cn2ccnc2)cc1Oc1cccc(Cl)c1`: the IC50 is 53 nM in assay [1] and 3200 nM in assay [2].
Take `N#Cc1ccc(Cn2ccnc2)cc1OCc1ccccc1`: the half-maximal inhibitory concentration (IC50) in assay [1] was 1500 nM; in assay [2] it was 6800 nM.
On the same counts, the results for `N#Cc1cccc(Oc2cc(Cn3ccnc3)ccc2C#N)c1` are 130 nM and 16000 nM.
For `C#Cc1cccc(Oc2cc(Cn3ccnc3)ccc2C#N)c1`, the results for the IC50 in assay [1] and in assay [2] were 27 nM and 2600 nM, respectively.
For the compound `N#Cc1ccc(Cn2ccnc2)cc1Oc1cccc(C(=O)c2ccccc2)c1`, the figures for the IC50 in assay [1] and in assay [2] were 13 nM and 840 nM, respectively.
For `N#Cc1ccc(Cn2ccnc2)cc1Oc1cccc(C(=O)Nc2ccccc2)c1`, in that order: 38 nM and 3300 nM.
In the case of `COc1ccc(Oc2cc(Cn3ccnc3)ccc2C#N)cc1`, the IC50 in assay [1] was 290 nM; in assay [2], 3500 nM.
On to `N#Cc1ccc(Cn2ccnc2)cc1Oc1ccccc1Cl`, for which the IC50 in assay [1] was found to be 41 nM; in assay [2], 1100 nM.
With `N#Cc1ccc(Cn2ccnc2)cc1Oc1ccc(Cl)cc1Cl`, the IC50 in assay [3] was 260 nM; in assay [1] it was 8 nM; in assay [2], 280 nM.
Consider `COc1ccc(OC)c(Oc2cc(Cn3ccnc3)ccc2C#N)c1`, for which the IC50 in assay [1] was 100 nM; in assay [2], 18000 nM.
`N#Cc1ccc(Cn2ccnc2)cc1Sc1ccc(Cl)cc1Cl`: the IC50 in assay [3] is 96 nM; in assay [1], less than 1 nM; in assay [2], 23 nM.
In the case of `N#Cc1ccc(Cn2ccnc2)cc1Oc1ccccc1`, the IC50 in assay [1] came out at 230 nM; in assay [2] it was 3700 nM.
As for `COc1cccc(Oc2cc(Cn3ccnc3)ccc2C#N)c1`, the half-maximal inhibitory concentration (IC50) turned out to be 40 nM in assay [1] and 3500 nM in assay [2].
Turning to `N#Cc1ccc(Cn2ccnc2)cc1Oc1cccc2ccccc12`, the values for the IC50 in assay [1] and in assay [2] were 150 nM and 3200 nM, respectively.
In the case of `COc1cccc(Oc2cc(Cn3ccnc3)ccc2C#N)c1OC`, the results for the IC50 in assay [3], in assay [1] and in assay [2] were 14 nM, 1 nM and 15000 nM, respectively.
Take `N#Cc1ccc(Cn2ccnc2)cc1Oc1cccc(F)c1`: the IC50 worked out at 180 nM in assay [1] and 4400 nM in assay [2].
In the case of `N#Cc1ccc(Cn2ccnc2)cc1OCCc1ccc(-c2ccccc2)cc1`, the results for the IC50 in assay [1] and in assay [2] were 86 nM and 12000 nM, respectively.
`N#Cc1ccc(Cn2ccnc2)cc1Oc1ccccc1-c1ccccc1`: the IC50 in assay [1] amounted to 110 nM; in assay [2] it was 740 nM.
In the case of `CC(=O)c1cccc(Oc2cc(Cn3ccnc3)ccc2C#N)c1`, the IC50 in assay [1] was 45 nM; in assay [2], 6100 nM.
As for `CCC1(c2cccc(Oc3cc(Cn4ccnc4)ccc3C#N)c2)CCCCN(C)C1=O` (stereo not drawn), the IC50 in assay [3] came to 4.9 nM; in assay [1], 2.9 nM; in assay [2], 7.1 nM.
For the compound `N#Cc1ccc(Cn2ccnc2)cc1[S+]([O-])c1ccc(Cl)cc1Cl` (stereo not drawn), the figures for the IC50 in assay [1] and in assay [2] were 390 nM and 2000 nM, respectively.
On to `N#Cc1ccc(Cn2ccnc2)cc1Oc1cccc(Nc2ccccc2)c1`, for which the IC50 stood at 17 nM in assay [1] and 630 nM in assay [2].
In the case of `N#Cc1ccc(Cn2ccnc2)cc1OCCCc1ccccc1`, the IC50 is 200 nM in assay [1] and 3100 nM in assay [2].
Regarding `Cc1ncn(Cc2ccc(C#N)cc2)c1CN1CC(=O)N(c2cccc(Cl)c2)CC1CCS(C)(=O)=O` (stereo not drawn), the 50% inhibitory concentration (IC50) in assay [1] stood at 475 nM.
Turning to `N#Cc1ccc(Cn2ccnc2)cc1S(=O)(=O)c1ccc(Cl)cc1Cl`, the 50% inhibitory concentration (IC50) is 5400 nM in assay [1] and 8800 nM in assay [2].
With `N#Cc1ccc(Cn2ccnc2)cc1Oc1ccc(Cl)cc1`, the results for the IC50 in assay [1] and in assay [2] were 38 nM and 920 nM, respectively.
As to `N#Cc1ccc(Cn2ccnc2)cc1Oc1cccc(-c2ccccc2)c1`, the IC50 in assay [1] turned out to be 9.6 nM; in assay [2], 520 nM.
In the case of `CC(C)(C)c1cccc(Oc2cc(Cn3ccnc3)ccc2C#N)c1`, the IC50 was 27 nM in assay [1] and 520 nM in assay [2].
For `N#Cc1ccc(Cn2ccnc2)cc1OCCCCc1ccccc1`, the 50% inhibitory concentration (IC50) in assay [1] came to 440 nM; in assay [2] it was 380 nM.
Consider `N#Cc1ccc(Cn2ccnc2)cc1Oc1cccc(Br)c1`, for which the IC50 in assay [1] turned out to be 38 nM; in assay [2] it was 2900 nM.
With `N#Cc1ccc(Cn2ccnc2)cc1Oc1cccc(NC(=O)c2ccccc2)c1`, the results for the half-inhibitory concentration (IC50) in assay [1] and in assay [2] were 38 nM and 2000 nM, respectively.
